Results as given in patent US10202378B2, “Therapeutic compounds and uses thereof” (GENENTECH, INC., priority 2015, dated 2019).

Columns and labels:
TAF1-BD2 = TAF1-BD2 (Homo sapiens, UniProt P21675); assay: TAF1-BD2 TR-FRET Binding Assay; details: read-out: TAF1-BD2 HTRF IC50
TAF1-BD1 = TAF1-BD1 (Homo sapiens, UniProt P21675); assay: TAF1-BD1 TR-FRET Binding Assay; details: read-out: TAF1-BD1 HTRF IC50

Molecule | IC50 (TAF1-BD2) | IC50 (TAF1-BD1)
CCOC(=O)c1c(C)[nH]c2c(=O)n(C)cc(C#CC(C)(O)CCc3ccccc3)c12 (centres unmarked) [Example 23, ethyl 4-(3-hydroxy-3-methyl-5-phenyl-pent-1-ynyl)-2,6-dimethyl-7-oxo-1H-pyrrolo[2,3-c]pyridine-3-carboxylate] | 58.6 nM | 182 nM
Cc1[nH]c2c(=O)n(C)cc(C#CC(O)(c3ccccc3)C(F)(F)F)c2c1-c1nnco1 (centres unmarked) [Example 183, 2,6-dimethyl-3-(1,3,4-oxadiazol-2-yl)-4-(4,4,4-trifluoro-3-hydroxy-3-phenyl-but-1-ynyl)-1H-pyrrolo[2,3-c]pyridin-7-one] | 50.2 nM | 598 nM
CCOC(=O)c1c[nH]c2c(=O)n(C)cc(C#CC(C)(C)O)c12 [Example 53, ethyl 4-(3-hydroxy-3-methyl-but-1-ynyl)-6-methyl-7-oxo-1H-pyrrolo[2,3-c]pyridine-3-carboxylate] | 95.2 nM | 859 nM
CCOC(=O)c1c(C)[nH]c2c(=O)n(C)cc(C#CC(O)(c3cccc(N4CCOCC4)c3)C(F)(F)F)c12 (centres unmarked) [Example 208, ethyl 2,6-dimethyl-7-oxo-4-[4,4,4-trifluoro-3-hydroxy-3-(3-morpholinophenyl)but-1-ynyl]-1H-pyrrolo[2,3-c]pyridine-3-carboxylate] | 79.5 nM | 438 nM
Cc1[nH]c2c(=O)n(C)cc(C#CC(C)(O)C3CC3)c2c1C(=O)OCc1nccs1 (centres unmarked) [Example 109, thiazol-2-ylmethyl 4-(3-cyclopropyl-3-hydroxy-but-1-ynyl)-2,6-dimethyl-7-oxo-1H-pyrrolo[2,3-c]pyridine-3-carboxylate] | 67.9 nM | 222 nM
CCOC(=O)c1c(C)[nH]c2c(=O)n(C)cc(C#CC3(O)CCCCC3)c12 [Example 81, ethyl 4-[2-(1-hydroxycyclohexyl)ethynyl]-2,6-dimethyl-7-oxo-1H-pyrrolo[2,3-c]pyridine-3-carboxylate] | 63.2 nM | 257 nM
Cc1[nH]c2c(=O)n(C)cc(C#CC(C)(C)O)c2c1C(=O)OC(C)c1ccccc1 (centres unmarked) [Example 120, 1-phenylethyl 4-(3-hydroxy-3-methyl-but-1-ynyl)-2,6-dimethyl-7-oxo-1H-pyrrolo[2,3-c]pyridine-3-carboxylate] | 83.2 nM | 260 nM
Cc1[nH]c2c(=O)n(C)cc(C#CC(C)(C)O)c2c1C(=O)OCc1ccccc1CO [Example 111, [2-(hydroxymethyl)phenyl]methyl 4-(3-hydroxy-3-methyl-but-1-ynyl)-2,6-dimethyl-7-oxo-1H-pyrrolo[2,3-c]pyridine-3-carboxylate] | 37.9 nM | 259 nM
C=CCCn1cc(C#CC(C)(O)C2CC2)c2c(C(=O)OCC)c(C)[nH]c2c1=O (centres unmarked) [Example 46, ethyl 6-but-3-enyl-4-(3-cyclopropyl-3-hydroxy-but-1-ynyl)-2-methyl-7-oxo-1H-pyrrolo[2,3-c]pyridine-3-carboxylate] | 133 nM | 2230 nM
CCOC(=O)c1c(C)[nH]c2c(=O)n(C)cc(C#CC(O)(c3cccc(N(C)C)c3)C(F)(F)F)c12 (centres unmarked) [Example 39, ethyl 4-[3-[3-(dimethylamino)phenyl]-4,4,4-trifluoro-3-hydroxy-but-1-ynyl]-2,6-dimethyl-7-oxo-1H-pyrrolo[2,3-c]pyridine-3-carboxylate] | 76.9 nM | 525 nM
Cc1[nH]c2c(=O)n(C)cc(C#CC(C)(O)C3CC3)c2c1-c1nnc(C(C)(C)C)o1 (single isomer, unassigned) [Example 98b, 3-(5-tert-butyl-1,3,4-oxadiazol-2-yl)-4-(3-cyclopropyl-3-hydroxy-but-1-ynyl)-2,6-dimethyl-1H-pyrrolo[2,3-c]pyridin-7-one] | 33.9 nM | 108 nM
Cc1[nH]c2c(=O)n(C)cc(C#CC(C)(C)O)c2c1C(=O)OC(C)(C)C [Example 133, tert-butyl 4-(3-hydroxy-3-methyl-but-1-ynyl)-2,6-dimethyl-7-oxo-1H-pyrrolo[2,3-c]pyridine-3-carboxylate] | 31.1 nM | 308 nM
CCOC(=O)c1c(C)[nH]c2c(=O)n(C)cc(C#CC(C)(O)CC#N)c12 (centres unmarked) [Example 35, ethyl 4-(4-cyano-3-hydroxy-3-methyl-but-1-ynyl)-2,6-dimethyl-7-oxo-1H-pyrrolo[2,3-c]pyridine-3-carboxylate] | 100 nM | 139 nM
3-(hydroxymethyl)-4-(3-hydroxy-3-methyl-but-1-ynyl)-2,6-dimethyl-1H-pyrrolo[2,3-c]pyridin-7-one [Example 201] | 2250 nM | 6050 nM
Cc1cc([C@](C)(O)C#Cc2cn(C)c(=O)c3[nH]c(C)c(C(=O)OC(C)C)c23)no1 [Example 157, isopropyl 4-[(3R)-3-hydroxy-3-(5-methylisoxazol-3-yl)but-1-ynyl]-2,6-dimethyl-7-oxo-1H-pyrrolo[2,3-c]pyridine-3-carboxylate] | 71.2 nM | 233 nM
Cc1cc([C@](C)(O)C#Cc2cn(C)c(=O)c3[nH]c(C)c(-c4nnc(C)o4)c23)no1 [Example 193, 4-[(3R)-3-hydroxy-3-(5-methylisoxazol-3-yl)but-1-ynyl]-2,6-dimethyl-3-(5-methyl-1,3,4-oxadiazol-2-yl)-1H-pyrrolo[2,3-c]pyridin-7-one] | 153 nM | 517 nM

Molecule | IC50 (TAF1-BD2) | IC50 (TAF1-BD1)
Cc1[nH]c2c(=O)n(C)cc(C#CC(C)(O)CC#N)c2c1C(=O)OCC(C)C (centres unmarked) [Example 154, isobutyl 4-(4-cyano-3-hydroxy-3-methyl-but-1-ynyl)-2,6-dimethyl-7-oxo-1H-pyrrolo[2,3-c]pyridine-3-carboxylate] | 99.8 nM | 150 nM
Cc1ccccc1COC(=O)c1c(C)[nH]c2c(=O)n(C)cc(C#CC(C)(C)O)c12 [Example 121, o-tolylmethyl 4-(3-hydroxy-3-methyl-but-1-ynyl)-2,6-dimethyl-7-oxo-1H-pyrrolo[2,3-c]pyridine-3-carboxylate] | 21.5 nM | 85 nM
Cc1[nH]c2c(=O)n(C)cc(C#CC(C)(O)C3CC3)c2c1C(=O)OC(C)C(C)C (centres unmarked) [Example 141, 1,2-dimethylpropyl 4-(3-cyclopropyl-3-hydroxy-but-1-ynyl)-2,6-dimethyl-7-oxo-1H-pyrrolo[2,3-c]pyridine-3-carboxylate] | 75.6 nM | 244 nM
CCOC(=O)c1c(C)[nH]c2c(=O)n(C)cc(C#CC(O)(c3cccc(-c4ccccc4C)c3)C(F)(F)F)c12 (centres unmarked) [Example 102, ethyl 2,6-dimethyl-7-oxo-4-[4,4,4-trifluoro-3-hydroxy-3-[3-(o-tolyl)phenyl]but-1-ynyl]-1H-pyrrolo[2,3-c]pyridine-3-carboxylate] | 912 nM | 7510 nM
CC(=O)c1c(C)n(C)c2c(=O)[nH]cc(C#CC(C)(C)O)c12 [Example 199b, 3-acetyl-4-(3-hydroxy-3-methyl-but-1-ynyl)-1,2-dimethyl-6H-pyrrolo[2,3-c]pyridin-7-one] | 20000 nM | 20000 nM
Cc1[nH]c2c(=O)n(C)cc(C#CC(C)(C)O)c2c1C(=O)OCc1ccccc1F [Example 119, (2-fluorophenyl)methyl 4-(3-hydroxy-3-methyl-but-1-ynyl)-2,6-dimethyl-7-oxo-1H-pyrrolo[2,3-c]pyridine-3-carboxylate] | 26.7 nM | 145 nM
CCOC(=O)c1c(C)[nH]c2c(=O)n(C)cc(C#CC(C)(C)C)c12 [Example 76, ethyl 4-(3,3-dimethylbut-1-ynyl)-2,6-dimethyl-7-oxo-1H-pyrrolo[2,3-c]pyridine-3-carboxylate] | 777 nM | 561 nM
C=CCCn1cc(C#CC(C)(C)O)c2c(C(=O)OCC)c(C)[nH]c2c1=O [Example 49, ethyl 6-but-3-enyl-4-(3-hydroxy-3-methyl-but-1-ynyl)-2-methyl-7-oxo-1H-pyrrolo[2,3-c]pyridine-3-carboxylate] | 116 nM | 2850 nM
CCOC(=O)c1c(C)[nH]c2c(=O)n(C)cc(C#CC3(O)CCN(C)C3=O)c12 (centres unmarked) [Example 74, ethyl 4-[2-(3-hydroxy-1-methyl-2-oxo-pyrrolidin-3-yl)ethynyl]-2,6-dimethyl-7-oxo-1H-pyrrolo[2,3-c]pyridine-3-carboxylate] | 209 nM | 2040 nM
Cc1[nH]c2c(=O)n(C)cc(C#CC(C)(C)O)c2c1C(=O)OCc1ccncc1 [Example 112, 4-pyridylmethyl 4-(3-hydroxy-3-methyl-but-1-ynyl)-2,6-dimethyl-7-oxo-1H-pyrrolo[2,3-c]pyridine-3-carboxylate] | 610 nM | 4620 nM
Cc1[nH]c2c(=O)n(C)cc(C#CC(C)(O)C3CC3)c2c1-c1nnc(C(C)(C)C)o1 (single isomer, unassigned) [Example 98a, 3-(5-tert-butyl-1,3,4-oxadiazol-2-yl)-4-(3-cyclopropyl-3-hydroxy-but-1-ynyl)-2,6-dimethyl-1H-pyrrolo[2,3-c]pyridin-7-one] | 227 nM | 728 nM
CCOC(=O)c1c(C)[nH]c2c(=O)n(C)cc(C#CC3(O)COC3)c12 [Example 30, ethyl 4-[2-(3-hydroxyoxetan-3-yl)ethynyl]-2,6-dimethyl-7-oxo-1H-pyrrolo[2,3-c]pyridine-3-carboxylate] | 87.3 nM | 634 nM
Cc1[nH]c2c(=O)n(C)cc(C#CC(O)(c3ccccc3)C(F)(F)F)c2c1C(=O)OC(C)(C)CC#N (centres unmarked) [Example 136, (2-cyano-1,1-dimethyl-ethyl) 2,6-dimethyl-7-oxo-4-(4,4,4-trifluoro-3-hydroxy-3-phenyl-but-1-ynyl)-1H-pyrrolo[2,3-c]pyridine-3-carboxylate] | 36.5 nM | 267 nM
CCOC(=O)c1c(C)[nH]c2c(=O)n(C)cc(C#CC(O)(c3ccn(C)n3)C(F)(F)F)c12 (centres unmarked) [Example 42, ethyl 2,6-dimethyl-7-oxo-4-[4,4,4-trifluoro-3-hydroxy-3-(1-methylpyrazol-3-yl)but-1-ynyl]-1H-pyrrolo[2,3-c]pyridine-3-carboxylate] | 96.9 nM | 657 nM
CCOC(=O)c1c(C)[nH]c2c(=O)n(C)cc(C#C[C@@H]3CCCC[C@H]3O)c12 (stereo in doubt) [Example 84, ethyl 4-[2-(2-hydroxycyclohexyl)ethynyl]-2,6-dimethyl-7-oxo-1H-pyrrolo[2,3-c]pyridine-3-carboxylate] | 187 nM | 2000 nM
